{
  "source": "patent US11365410B2",
  "about": "“Production and monitoring of metabolites in cells” (President and Fellows of Harvard College, priority 2015, dated 2022)",
  "key": {"[1]": {"tested_on": "prpR-based 3HP biosensor (pcs, prpC, prpR)", "test": "prpR-based 3HP biosensor characterization", "type": "cell-based, E. coli", "excerpt": "(§1) According to a first aspect, 3-HP is transformed into 2-methylcitrate in the presence of a 2-methylcitrate sensor. The resulting system is a 3-HP biosensor. The transcriptional regulator prpR from E. coli is used to control gene expression in proportion to the concentration of 2-methylcitrate inside the cell. This inducible system has been described previously with the aim of sensing propionate—a distinct chemical from 3HP (WO 2007005837 A3, http://www.ncbi.nlm.nih.gov/pubmed/16269719). The endogenous enzyme, 2-methylcitrate synthase (prpC), and the heterologous multifunctional enzyme propionyl-CoA synthase (pcs) from the carbon fixation pathway of Chloroflexus aurantiacus (see Mattozzi, M., Ziesack, M., Voges, M. J., Silver, P. A. and Way, J. C. (2013) Expression of the sub-pathways of the Chloroflexus aurantiacus 3-hydroxypropionate carbon fixation bicycle in E. coli: Toward horizontal transfer of autotrophic growth. Metab Eng, 16, 130-139 hereby incorporated by reference in its entirety) are used to produce 2-methylcitrate from 3-HP. Together the system of three genes (pcs, prpC, prpR) comprises the prpR-based 3HP biosensor (see FIG. 15A). […] As a result of this linkage, 3-HP concentration controls expression of green fluorescent protein (GFP). […] The proportion of 2-methylcitrate produced in this way is proportional to the amount of 3-HP inside the cell. The expression of the controlled gene is thus a measurement of intracellular 3-HP concentration.\nDH5α cells doubly transformed with plasmids pPro24-GFP and pJKR-PCS, or plasmids pJKR-H-acuR and pJKR-PCSfrag-ACH, were exposed to increasing concentrations of 3-HP and monitored for GFP expression. Cells were grown overnight to saturation before being diluted 1:100 into fresh LB media and incubated at 200 RPM and 37° C. After four hours, 150 μl of the log-phase cells were transferred to 96-well plates and 3HP was added to the appropriate final concentration. Each inoculation and induction was performed in triplicate. Strains lacking the biosensor helper plasmids were included to reveal that the biosensor activation was indeed dependent on the presence of the helper plasmids. In the case of the end-point measurements, fluorescence was measured 16 hours after 3-HP addition with a Biotek HT plate reader (excitation 485/20, emission 528/20). Time course data was collected over a 16 hour period on the same plate reader at 37° C. with fast shaking and 10 minute measurement intervals. Fluorescence was normalized by optical density. Fold induction was determined by dividing the fluorescence obtained at the current induction level by the fluorescence obtained without induction. Error bars represent the 95% confidence interval derived from the standard error of the mean."}, "prpR (E. coli)": {"tested_on": "prpR (E. coli)", "test": "prpR-based 3HP biosensor induction (indirect, via 2-methylcitrate)", "type": "cell-based", "settings": "12 mM 3-HP; with pcs and prpC", "excerpt": "as §1, with “The expression of the controlled gene is thus a measurement of intracellular 3-HP concentration.” left out"}, "acuR": {"tested_on": "acuR", "test": "acuR-based 3HP biosensor induction (indirect, via acrylate)", "type": "cell-based, Rhodobacter sphaeroides", "settings": "10 mM 3HP; with pcs^Δ3 and ach", "procedure": "Metab Eng, 16, 130-139 hereby incorporated by reference in its entirety). All three reactions are useful for a prpR-based biosensor, but for the acuR-based biosensor, accumulation of acrylyl-CoA rather than propionyl-CoA is necessary. […] Accordingly, the domain responsible for conversion of acrylyl-CoA to propionyl-CoA was removed while preserving the activity of the other two domains. […] A 90-fold increase in fluorescence was obtained when the acuR-based biosensor was induced with 10 mM 3HP. […] Fluorescence remained at background levels for greater than 16 hours in the absence of pcs^Δ3 and ach (see FIG. 17).\nPlasmids were constructed using Gibson isothermal assembly methods (see Gibson, D. G., Young, L., Chuang, R. Y., Venter, J. C., Hutchison, C. A., 3rd and Smith, H. O. (2009) Enzymatic assembly of DNA molecules up to several hundred kilobases. Nat Methods, 6, 343-345 hereby incorporated by reference in its entirety) and cloned into DH5α electrocompetent cells purchased from New England Biolabs. Biosynthesis of product molecules was carried out in either BL21 (DE3) or DH5α. The prpR-based 3HP biosensor was implemented as a two-plasmid system. The first plasmid is pPro24-GFP (Addgene plasmid #18880), which expresses GFPuv under the control of the methyl-citrate responsive transcription factor, prpR, on a pBR322 origin of replication providing β-lactam resistance. […]"}},
  "data": [
    {"smiles": "O=C(O)CCO", "note": "[3-HP, 3-hydroxypropionate]", "values": [
      {"measurement": "time to half-maximal fluorescent response", "setting": "[1]; 3-HP induction", "value": 5, "unit": "h"},
      {"measurement": "time to reach 90% induction", "setting": "[1]; 3-HP induction", "value": "approximately 8 hours"},
      {"measurement": "fluorescent response, fold greater than uninduced fluorescence", "setting": "[1]; induced with 12 mM 3-HP", "value": 2.4, "unit": "fold"},
      {"measurement": "response of prpR sensor alone", "setting": "[1]; without helper enzyme pcs", "value": "cannot detect"},
      {"measurement": "Fluorescent response relative to uninduced", "setting": "prpR (E. coli)", "value": 2.4, "unit": "fold"},
      {"measurement": "Increase in fluorescence", "setting": "acuR", "value": 90, "unit": "fold"}
    ]}
  ]
}
